The subject of data set [1] is SN12C-GFP human renal cancer cells. The data set is described as follows: CXCL12-induced SN12C-GFP migration. The class given is cell-based. The following applies: Figure 5. Here is the method:
(§1) Migration was assayed in 24-well Transwell chambers (Corning Inc., Corning, NY) using inserts with an 8-µm pore membrane. Membranes were precoated with collagen (human collagen type I/III) and fibronectin (20 µg/mL each). […] After 16 h incubation, cells on the upper surface of the filter were removed using a cotton wool swab; migration of cells in migration media alone was compared with migration in media containing CXCL12. The cells were counted in ten different fields (original magnification ×40). The migration index was defined as the ratio between migrating cells in the experimental group and migrated cells in the control group. For the wound closure assay, tested cells were allowed to reach confluence in six-well plates containing serum-depleted growth medium and scratched with pipette tips to make wounds. The wound closure was observed microscopically 6 hours post-wounding (OKO Time Lapse).
6 to 8-week-old female CD1 nude mice were injected subcutaneously with 2×10^6 pEGFP-SN12C cells pre-treated with 10 µM AMD3100 or 10 µM of each peptide. […] The experiments were repeated three times.

Data set [2] relates to K7M2 murine osteosarcoma cells. In words: K7M2 in vitro migration. Type of data set: cell-based, mouse. Particulars: Figure 4. The method, then:
as §1

Data set [3] has as its system P-ERK1/2. In words: CXCL12-induced p-ERK induction (immunoblotting). Type of data set: cell-based, human. Particulars: PES43 cells serum-starved, CXCL12 100 ng/ml, after 5 minutes. The method, then:
Cells were homogenized in lysis buffer (40 mM Hepes pH 7,5, 120 mM NaCl, 5 mM MgCl2, 1 mM EGTA, 0,5 mM EDTA, 1% Triton X-100) containing protease (Complete Tablets- EDTA-free, Roche) and phosphatase inhibitors (20 mM α-glycerol-3-phosphate, 2,5 mM Na-pyrophosphate). The following primary antibodies were used: anti-p-ERK (sc7383, Santa Cruz Biotechnology, Inc., Santa Cruz, CA, USA) and anti-ERK2 (sc 154G, Santa Cruz Biotechnology CA, USA). P-Erk induction was plotted as ratio P-Erk in the presence of CXCL12 (100 ng/ml)/P-Erk in serum free.
(§2) Experiments were conducted using PES43 cells. (A) Migration was assayed in 24-well Transwell chambers using inserts with 8-µm pore membrane. […] Migrated cells on the lower surface were fixed, stained with H&E and counted microscopically. The results are expressed as the migration index relative to migration in presence of BSA alone. […] Images were acquired with OKO Time Lapse. […] PES43 cells were serum-starved and incubated with CXCL12 (100 ng/ml) alone or in presence of AMD3100/peptides. Each peptide was tested in at least three different experiments. Double tailed T-Test was used for statistical analyses. Differences were considered significant at P<0.05 compared to control.
PES43 cell lines were serum starved for 16 hours. […] (TIF) Click here for additional data file.
(In western blotting, separated proteins are transferred to a membrane and probed.)

Data set [4] concerns human cancer cell lines (SN12C, RXF393, A498 and PES43). The data set is described as follows: Cytotoxicity on human cancer cell lines. The class given is cell-based.
In data set [5] the test system is PES43 human melanoma cells. The data set is described as follows: CXCL12-dependent Transwell migration of PES43 cells. Type of data set: cell-based. The following applies: 100 ng/mL CXCL12 in lower chamber, 16 h, tested 10 nM, 100 nM, 1 µM, 10 µM. Here is the method: as §1, §2
Data set [6] has as its system SN12C-EGFP renal cancer cells. In words: SN12C-pEGFP subcutaneous xenograft tumor growth. The following applies: IP 10 days, peptides 2 mg/kg, AMD3100 1.25 mg/kg; measured a week later by fluorescence stereomicroscope; control 65.97±35.1; average. The class given is in vivo, CD1 nude mice. The method, then:
(§3) All mice were obtained from Harlan (Bar Harbor, ME, USA) and their care was in accord with institutional guidelines. Twenty-five 6-8-week-old female C57BL/6 mice were inoculated into the tail vein with 5×10^5 B16–CXCR4 cells pre-treated for 30 minutes with peptide S (10 µM), peptide R (10 µM), peptide I (10 µM), or AMD3100 (10 µM). Six hours later intraperitoneal (IP) treatment started with AMD3100 (1.25 mg/kg) or each peptide (2 mg/kg) in sterile PBS once a day for 10 days. A week later the mice were sacrificed. The experiment was repeated three times. The lung metastases assay was also conducted with K7M2 murine osteosarcoma cells. Twenty-five 6-8-week-old female Balb/c mice were injected via tail vein with 2.5×10^5 K7M2 cells pre-treated for 30 minutes with AMD3100 (10 µM), peptide S (10 µM), peptide R (10 µM), peptide I (10 µM) and animals were treated IP daily for 15 days with 2.5 mg/kg for AMD3100 group and 10 mg/kg for each peptide groups. A week later the mice were sacrificed. Xenograft tumor growth was evaluated using pEGFP-SN12C cells in exponential growth phase subcutaneously injected into the right flank of twenty-five 6-8-week-old female CD1 nude mice. 2×10^6 SN12C-pEGFP were injected in the right flank of each mouse and treated with AMD3100 (1.25 mg/kg) and peptides (2 mg/kg) for 10 days ip. A week later mice were euthanized and tumor volume evaluated through Leica MacroFluo fluorescence stereomicroscope (Leica microsystem, Houston, TX). The experiment was repeated three times. The Istituto Nazionale per lo Studio e la Cura dei Tumori, Fondazione Giovanni Pascale Independent Etical Comettee approved the study (CEI/600/12).
6 to 8-week-old female CD1 nude mice were injected subcutaneously with 2×10^6 pEGFP-SN12C cells pre-treated with 10 µM AMD3100 or 10 µM of each peptide. Beginning the following day mice were further treated intraperitoneally for 10 days with 1.25 mg/kg AMD3100 or 2 mg/kg of peptides R, I or S. A week later mice were euthanized and tumor volume evaluated directly from the flank of mice using a Leica MacroFluo fluorescence stereomicroscope (Leica microsystem, Houston, TX) (A). The experiments were repeated three times. B. SN12C-PEGFP cells migration toward CXCL12 in the presence of AMD3100 or Peptide R, S and I.

Data set [7] relates to B16-CXCR4 murine melanoma cells. The data set is described as follows: B16-CXCR4 melanoma lung metastases model. The following applies: cells pre-treated 30 min with 10 µM, IP once a day for 10 days, peptides 2 mg/kg, AMD3100 1.25 mg/kg; for number of lung metastases: control 8.4±3.49, average. Type of data set: in vivo, C57BL/6 mice. The method, then: as §3
(A) B16-CXCR4 tumor cells pre-treated for 30 minutes with AMD3100 (10 µM), peptide R (10 µM), peptide I (10 µM), or peptide S (10 µM) were inoculated into the tail vein of C57/B female mice and the mice were further treated intraperitoneally for 10 days with 1.25 mg/kg AMD3100, or 2 mg/kg peptide R, peptide I or peptide S. Gross examination of representative lungs; (B) Graphical representation of the number of lung metastases in treated mice. Double tailed T-Test was used for statistical analyses. The experiments were repeated three times.

In data set [8] the test system is CXCR4. The data set is described as follows: Mobilization of hematopoietic precursors and neutrophils. The class given is in vivo. The following applies: DBA/2 mouse; for duration of mobilization effect compared to AMD3100: preliminary; for stem cell and neutrophil mobilization relative to AMD3100: preliminary evidence. The source says:
The development of CXCR4 inhibitors is of increasing interest with AMD3100 (Plerixafor) having been approved by the FDA for stem cell mobilization, [39]. We evaluated peptides R, I and S for their ability to mobilize hematopoietic precursors in a DBA/2 mouse model in a CXCR4 dependent manner.

Like-named read-outs stand apart in the source and are kept apart here. Bridges are numbered along the chain shown (N, C = ends). Where no end group is shown, it is not given here.

As for “Arg-Ala-[Cys-Arg-His-Trp-Cys] (RACRHWC; disulfide 3-7) [Peptide S, CXCL12-mimetic disulfide-cyclic peptide]”, the “CXCL12-induced SN12C-GFP migration” value in data set [1] is reported as “inhibited”. Besides, the “K7M2 in vitro migration” value in data set [2] was “reduced”. Also, the “CXCL12-mediated p-ERK induction” value in data set [3] is reported as “reduced”. For the same substance, in data set [4], the cytotoxicity entry is on record as “no toxicity”. For the same substance, in data set [5], the “concentration at which CXCL12-dependent migration was inhibited” value is reported as at most 10 nM. Moreover, the “tumor volume of SN12C-GFP xenograft” value in data set [6] turned out to be 44.51±26.4 mm^3. The “number of lung metastases” value in data set [7] was 2.96±2.39. In data set [8], the “duration of mobilization effect compared to AMD3100” value (from here on “duration … compared to AMD3100”) is “more durable”; the “stem cell and neutrophil mobilization relative to AMD3100” value was “as potent stem cell and neutrophil mobilization as does AMD3100”.

Regarding “Arg-Ala-[Cys-Arg-Phe-Phe-Cys] (RACRFFC; disulfide 3-7) [Peptide R, CXCL12-mimetic disulfide-cyclic peptide]”, in data set [1], the “CXCL12-induced SN12C-GFP migration” value was “inhibited”. The “K7M2 in vitro migration” value in data set [2] is recorded as “reduced”. Further, the “CXCL12-mediated p-ERK induction” value in data set [3] was “reduced”. Further, the cytotoxicity result in data set [4] is given as “no toxicity”. Moreover, the “concentration at which CXCL12-dependent migration was inhibited” value in data set [5] was at most 10 nM. For the same substance, the “tumor volume of SN12C-GFP xenograft” value in data set [6] is 47.00±16.88 mm^3. Besides, in data set [7], the “fold reduction of the number of lung metastases vs control” value turned out to be 7 fold and the “number of lung metastases” value is on record as 1.2±1.4. For the same substance, in data set [8], the “duration … compared to AMD3100” value is on record as “more durable”; the “stem cell and neutrophil mobilization relative to AMD3100” value was “as potent stem cell and neutrophil mobilization as does AMD3100”.

As to “[Cys-Trp-His-Arg-Cys] (CWHRC; disulfide 1-5) [Peptide I, v-MIP-II mimetic disulfide-cyclic peptide]”, the “CXCL12-induced SN12C-GFP migration” value in data set [1] is recorded as “inhibited”. Moreover, the “K7M2 in vitro migration” value in data set [2] was “reduced”. In addition, in data set [3], the “CXCL12-mediated p-ERK induction” value is “reduced”. In data set [4] (SN12C, RXF393, A498 and PES43, Figure S2), the cytotoxicity entry is reported as “no toxicity”. Moreover, the “concentration at which CXCL12-dependent migration was inhibited” value in data set [5] is at most 10 nM. For the same substance, in data set [6], the “tumor volume of SN12C-GFP xenograft” value was determined as 39.19±25.8 mm^3. For the same substance, in data set [7], the “fold reduction of the number of lung metastases vs control” value is given as 41.5 fold and the “number of lung metastases” value was 0.2±0.44. In addition, in data set [8], the “duration … compared to AMD3100” value is reported as “more durable”; the “stem cell and neutrophil mobilization relative to AMD3100” value is “as potent stem cell and neutrophil mobilization as does AMD3100”.
